Measured values from PMC10636063, “Progesterone activation of β1-containing BK channels involves two binding sites” (Nature Communications, 2023).
Where “and” joins values, the source holds several entries; their conditions need not be identical. Identical values can stand only once.

Assays:
[1] = test system: BK β4 subunit (KCNMB4 product); assay: Thermal unfolding (MST) of purified wt β4; format: binding; set-up: delta (Δ) of onset to inflection point: unit not given here
From the text: (§1) BK channel-forming slo1 cDNA (cbv1 isoform; AY330293) was cloned from rat cerebral artery SM cells, and inserted into pcDNA3.1 vector as described. BK β1 cDNA (KCNMB1 product; NP_011452; FJ154955) were isolated from rat cerebral artery SM cells and cloned as described. β4 cDNA (KCNMB4; NP_055320; AY028605) were generously provided by Dr. Ligia Toro. CHO cells were transiently transfected with cbv1 ± β1-, or β4-carrying pcDNA3.1 using X-tremeGENE HP (Sigma-Aldrich). Mutations to β1/4 cDNAs were conducted by Genscript, with sequences being confirmed to be >99% identical to KCNMB1 product; NP_011452 or β4 KCNMB4; NP_055320; respectively. β1/4 and mutant constructs were flag-tagged (DYKDDDDK-tag) by Genscript services for subsequent immunoprecipitation and use in microscale thermophoresis studies.
(§2) Wt β1, wt β4 and mutant constructs were purified by immunoprecipitation using Dynabeads Protein G Kit (10007D by Invitrogen) and following the manufacturer’s instructions. […] The unfolding profile of a protein is a plot of its fluorescence signal against temperature. […] During the heating process, fluorescence is recorded at 330 and 350 nm. The resulting fluorescence ratio change is then analyzed for onset and inflection points. The temperature of onset and inflection is determined using built-in analysis function in Nanotemper PR.therm-control software. […]

[2] = target: T1, β1Y32V,W163I (double mutant) (Rattus norvegicus, UniProt P97678, W163I/Y32V); assay: Thermal unfolding (MST) of β1 double mutant; format: binding
T1 construct: FLAG (DYKDDDDK); made in house; host or cells: CHO cells, transient transfection, anti-flag immunoprecipitation
From the text: as §1, §2

β1Y32F = target: T2, β1Y32F (Rattus norvegicus, UniProt P97678, Y32F); assay: Thermal unfolding (MST) of β1Y32F; format: binding
T2 construct: FLAG (DYKDDDDK); made in house; host or cells: CHO cells, transient transfection, anti-flag immunoprecipitation
From the text: as §1, §2

β1Y42V = target: T3, β1Y42V (Rattus norvegicus, UniProt P97678, Y42V); assay: Thermal unfolding (MST) of β1Y42V; format: binding
T3 construct: FLAG (DYKDDDDK); made in house; host or cells: CHO cells, transient transfection, anti-flag immunoprecipitation
From the text: as §1, §2

[3] = test system: de-endothelialized, pressurized MCA segments (C57BL/6 male); assay: EtOH-induced constriction of pressurized MCA in vitro; set-up: species or system mouse; settings: 10 µM PROG, 10-75 mM EtOH
From the text: Eight-12 week-old C57BL/6J and KCNMB1^−/− on C57BL/6 background mice of both sexes were deeply anesthetized with isoflurane via inhalation in a tightly sealed jar. Resistance size MCAs (~100 μm in external diameter) were dissected out of the mouse brains after animal euthanasia with sharp scissors. For de-endothelialized records, the endothelium was removed by passing an air bubble into the vessel lumen for 90 s[30]. This method has been consistently used by our group and validated using endothelium-dependent versus endothelium-independent vasodilators[16],[26]. Arteries were cannulated as previously described by our group[26],[40]. MCAs were cut into 5 to 10 mm-long segments under a microscope (Nikon SMZ645). The segment was cannulated at each end, and the artery exterior was continuously perfused with physiologic sodium saline (PSS) of the following composition (mM): 119 NaCl, 4.7 KCl, 1.2 KH2PO4, 1.6 CaCl2, 1.2 MgSO4, 0.023 EDTA, 11 glucose, 24 NaHCO3, pH=7.4. PSS was continuously bubbled with an O2/CO2/N2 (21/5/74%) gas mixture and maintained at 35–37 °C. The artery external wall diameter was measured using the automatic edge-detection function of lonWizard software (lonOptix) via Sanyo VCB-3512T camera (Sanyo Electric Co.). Arteries were first incubated at an intravascular pressure of 10 mm Hg for 10 min. Then intravascular pressure was increased to 60 mmHg and held steady throughout the experiment to induce myogenic tone development and maintenance[19],[30],[51]. Each artery segment was exposed to PROG, PROG-oxime (in presence and absence of 1 µM paxilline) only once to avoid development of desensitization during repeated applications of PROG-containing solution. To determine arterial viability, arterial contractility was probed with a high KCl solution at the end of each experiment. The high KCl solution was composed of the following composition (mM): 63.7 NaCl, 60 KCl, 1.2 KH2PO4, 1.2 MgSO4, 0.023 EDTA, 11 glucose, 24 NaHCO3, 1.6 CaCl2, pH=7.4. Like PSS, the high-KCl solution was continuously bubbled with O2/CO2/N2 (21/5/74%) gas mixture and maintained at 35–37 °C.

T1 sequence (P97678 whole entry Y32V/W163I): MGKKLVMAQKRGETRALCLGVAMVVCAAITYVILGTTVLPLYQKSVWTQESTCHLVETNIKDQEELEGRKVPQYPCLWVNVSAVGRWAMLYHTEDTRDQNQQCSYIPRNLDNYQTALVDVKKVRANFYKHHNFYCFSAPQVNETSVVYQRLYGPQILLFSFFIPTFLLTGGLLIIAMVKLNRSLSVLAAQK
T3 sequence (P97678 whole entry Y42V): as the sequence (P97678 whole entry Y32V/W163I) above, with V32Y, Y42V, I163W counted along it
T2 sequence (P97678 whole entry Y32F): as the sequence (P97678 whole entry Y32V/W163I) above, with V32F, I163W counted along it

## CC(=O)[C@H]1CC[C@H]2[C@@H]3CCC4=CC(=O)CC[C@]4(C)[C@H]3CC[C@]12C [PROG, Progesterone]
[1]; 10 μM PROG, individual records (Fig 1C)
  delta (Δ) of onset to inflection point: 24.8 and 1.81 and 4.188 and 7.2 and 3.495 and 5.4
[1]; 4–10 μM
  effect on thermal unfolding / binding: exerted a similar effect on the thermal unfolding of β4
[2]; 4.1 μM
  effect on thermal unfolding / binding: not destabilized
[2]; low concentrations (subμM)
  effect on thermal unfolding / binding: still destabilized
β1Y32F
  binding: still bind PROG
β1Y42V
  binding: still bind PROG
[3]
  effect on EtOH-induced vasoconstriction: blunted EtOH-induced vasoconstriction at all alcohol concentrations
